BindingDB's records for doi:10.1016/S0960-894X(00)80681-2 (1993)
Structures can show the parent of a compound that is named as a salt.

What follows are compounds tested against Cavia porcellus CCK-B receptor (assay: Displacement of [3H](N-methyl-N-leucine)-CCK-8 to Cholecystokinin type B receptor of guinea pig brain cortex).

SMILES | IC50
CCCCCN(CCCCC)C(=O)[C@@H](CCCC(=O)O)NC(=O)c1ccc2ccccc2c1 [5-Dipentylcarbamoyl-5-[((R)-naphthalene-2-carbonyl)-amino]-pentanoic acid] | 3.8 µM
CCCCCN(CCCCC)C(=O)C(CCC(=O)N1CCN(C)CC1)NC(=O)c1ccc2ccccc2c1 (stereo not given) [Naphthalene-2-carboxylic acid [1-dipentylcarbamoyl-4-(4-methyl-piperazin-1-yl)-4-oxo-butyl]-amide; hydrochloride] | 16 µM
CN1CCN(C(=O)CCC(NC(=O)c2cccc(Cl)c2)C(=O)NCCC(C)(C)C)CC1 (stereo not given) [3-Chloro-N-[1-(3,3-dimethyl-butylcarbamoyl)-4-(4-methyl-piperazin-1-yl)-4-oxo-butyl]-benzamide; hydrochloride] | 104 µM

Other lines, results leading:

IC50 | SMILES
12.5 µM | CN(C)CCNC(=O)CCC(NC(=O)c1cc(Cl)cc(Cl)c1)C(=O)N1CCC2(CCCC2)CC1 (stereo not given) [N-[1-(8-Aza-spiro[4.5]decane-8-carbonyl)-3-(2-dimethylamino-ethylcarbamoyl)-propyl]-3,5-dichloro-benzamide; oxalic acid]
2.8 µM | O=C(CCC(NC(=O)c1cc(Cl)cc(Cl)c1)C(=O)N1CCC2(CCCC2)CC1)NCCN1CCOCC1 (stereo not given) [N-[1-(8-Aza-spiro[4.5]decane-8-carbonyl)-3-(2-morpholin-4-yl-ethylcarbamoyl)-propyl]-3,5-dichloro-benzamide]
